# Reference: PubChem BioAssay AID602305 (The Scripps Research Institute Molecular Screening Center, 2012)
# Calls of active or inactive are those of the source. The rule behind the calls is not given here.
# System: cell line, cAMP TR-FRET counterscreen, inhibition
# Experiment: dose response, counter-screen, cell-based (AID 602305)
smiles,measurement,value
CCOP(=O)(CCP(=O)(OCC)OCC)OCC.C[CH2][Sn]([Cl])([Cl])[CH2]C,IC50,> 64.5 µM (inactive)
